Legend:
NK-92 (IL-2 2.5 ng/mL) [1] = assay: drug sensitivity score (DSS) (DSS units); higher = more sensitive; extreme values may be limits of the assay; settings: 72 h
DERL-7 (IL-2 2.5 ng/mL) [2] = assay: as above; settings: 72 h
KHYG-1 (IL-2 2.5 ng/mL) [3] = assay: as above; settings: 72 h
SNK-6 (IL-2 2.5 ng/mL) [4] = assay: as above; settings: 72 h
NK-YS (IL-2 2.5 ng/mL) [5] = assay: as above; settings: 72 h
[6] = system: normal primary NK cells, pool 1 (3 donors), resting (IL-2 0 ng/mL); assay: as above; settings: 72 h
[7] = system: normal primary NK cells, pool 1 (3 donors) (IL-2 2.5 ng/mL); assay: as above; settings: 72 h
YT (IL-2 2.5 ng/mL) [8] = assay: as above; settings: 72 h
NKL (IL-2 2.5 ng/mL) [9] = assay: as above; settings: 72 h
[10] = system: normal primary NK cells, pool 3 (3 donors) (IL-2 2.5 ng/mL); assay: as above; settings: 72 h
[11] = system: normal primary NK cells, pool 2 (3 donors) (IL-2 2.5 ng/mL); assay: as above; settings: 72 h
KAI3 (IL-2 2.5 ng/mL) [12] = assay: as above; settings: 72 h
IMC-1 (IL-2 20 ng/mL) [13] = assay: as above; settings: 72 h
[14] = system: normal NK cells expanded with K562-aAPC; assay: percent inhibition of viability; higher = more inhibition; settings: 72 h, IL-2 2.5 ng/mL
Method: (§1)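 Drug sensitivity and resistance testing on K562-aAPC-expanded normal NK cells: 5 concentrations (10-fold steps over a 10,000-fold range), 72 h at 37 °C, viability by CellTiter-Glo normalised to DMSO and benzethonium chloride controls; DSS from the fitted curve.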

[15] = system: normal NK cells expanded with K562-aAPC; assay: drug sensitivity score (DSS) (DSS units); higher = more sensitive; extreme values may be limits of the assay; settings: 72 h; IL-2 2.5 ng/mL
Method: as §1

NK-92 (IL-2 2.5 ng/mL) [16] = assay: percent inhibition of viability; higher = more inhibition; settings: 72 h
DERL-7 (IL-2 2.5 ng/mL) [17] = assay: as above; settings: 72 h
KHYG-1 (IL-2 2.5 ng/mL) [18] = assay: as above; settings: 72 h
SNK-6 (IL-2 2.5 ng/mL) [19] = assay: as above; settings: 72 h
NK-YS (IL-2 2.5 ng/mL) [20] = assay: as above; settings: 72 h
[21] = system: normal primary NK cells, pool 1 (3 donors), resting (IL-2 0 ng/mL); assay: as above; settings: 72 h
[22] = system: normal primary NK cells, pool 1 (3 donors) (IL-2 2.5 ng/mL); assay: as above; settings: 72 h
YT (IL-2 2.5 ng/mL) [23] = assay: as above; settings: 72 h
NKL (IL-2 2.5 ng/mL) [24] = assay: as above; settings: 72 h
[25] = system: normal primary NK cells, pool 3 (3 donors) (IL-2 2.5 ng/mL); assay: as above; settings: 72 h
[26] = system: normal primary NK cells, pool 2 (3 donors) (IL-2 2.5 ng/mL); assay: as above; settings: 72 h
KAI3 (IL-2 2.5 ng/mL) [27] = assay: as above; settings: 72 h
IMC-1 (IL-2 20 ng/mL) [28] = assay: as above; settings: 72 h

Cc1cc(Nc2cc(N3CCN(C)CC3)nc(Sc3ccc(NC(=O)C4CC4)cc3)n2)n[nH]1 [Tozasertib] (max concentration tested 10000 nM)
Settings | drug sensitivity score
DERL-7 (IL-2 2.5 ng/mL) [2] | 23.6
IMC-1 (IL-2 20 ng/mL) [13] | 17.4
KAI3 (IL-2 2.5 ng/mL) [12] | 11.6
KHYG-1 (IL-2 2.5 ng/mL) [3] | 16.6
NK-92 (IL-2 2.5 ng/mL) [1] | 11.4
NK-YS (IL-2 2.5 ng/mL) [5] | 19.2
NKL (IL-2 2.5 ng/mL) [9] | 2.42
SNK-6 (IL-2 2.5 ng/mL) [4] | 20.9
YT (IL-2 2.5 ng/mL) [8] | 5.97
[6] | 0.14
[7] | 3.05
[10] | 0.53
[11] | 2.02
[15] | 9.96

percent inhibition of viability [%]
Settings | 1 nM | 10 nM | 100 nM | 1000 nM | 10000 nM
DERL-7 (IL-2 2.5 ng/mL) [17] | 3.54 | -3.04 | 72.5 | 62 | 82
IMC-1 (IL-2 20 ng/mL) [28] | -4.29 | 1.42 | 24 | 78 | 98
KAI3 (IL-2 2.5 ng/mL) [27] | -4.42 | 3.12 | 20.6 | 48.2 | 71.8
KHYG-1 (IL-2 2.5 ng/mL) [18] | -4.48 | 2.48 | 32.5 | 67.5 | 85.3
NK-92 (IL-2 2.5 ng/mL) [16] | -7.92 | -11.5 | 9.53 | 52.9 | 83.8
NK-YS (IL-2 2.5 ng/mL) [20] | -6.33 | 0.35 | 56.9 | 67.3 | 60.3
NKL (IL-2 2.5 ng/mL) [24] | -9.16 | -8.33 | -3.2 | 4.79 | 34.7
SNK-6 (IL-2 2.5 ng/mL) [19] | -3.9 | 3.63 | 58.1 | 74.3 | 61.7
YT (IL-2 2.5 ng/mL) [23] | -3.46 | -2.16 | 13.1 | 25.8 | 47.4
[14] | -7.6 | -9.83 | 27.1 | 35.3 | 38.2
[21] | 2.84 | -2.46 | -18 | -4.6 | 15.2
[22] | -7.78 | -12.4 | -6.71 | 5.08 | 43.4
[25] | -7.32 | -4.94 | 0.04 | -0.07 | 19.2
[26] | -9.84 | -5.4 | -5.23 | -0.34 | 41.1

CC[C@@]1(O)C(=O)OCc2c1cc1n(c2=O)Cc2cc3c(CN(C)C)c(O)ccc3nc2-1 [Topotecan] (max concentration tested 10000 nM)
Settings | drug sensitivity score
DERL-7 (IL-2 2.5 ng/mL) [2] | 26.9
IMC-1 (IL-2 20 ng/mL) [13] | 30.6
KAI3 (IL-2 2.5 ng/mL) [12] | 28.5
KHYG-1 (IL-2 2.5 ng/mL) [3] | 30.1
NK-92 (IL-2 2.5 ng/mL) [1] | 32.8
NK-YS (IL-2 2.5 ng/mL) [5] | 29.2
NKL (IL-2 2.5 ng/mL) [9] | 29.9
SNK-6 (IL-2 2.5 ng/mL) [4] | 29
YT (IL-2 2.5 ng/mL) [8] | 27.7
[6] | 4.46
[7] | 10.3
[10] | 9.14
[11] | 8.28
[15] | 18.3

percent inhibition of viability [%]
Settings | 1 nM | 10 nM | 100 nM | 1000 nM | 10000 nM
DERL-7 (IL-2 2.5 ng/mL) [17] | -5.89 | 8.74 | 69.9 | 96.4 | 100
IMC-1 (IL-2 20 ng/mL) [28] | -3.93 | 2.9 | 98.1 | 99.6 | 100
KAI3 (IL-2 2.5 ng/mL) [27] | -7.96 | 6.65 | 82.9 | 69.8 | 100
KHYG-1 (IL-2 2.5 ng/mL) [18] | -8.76 | -0.99 | 98 | 104 | 104
NK-92 (IL-2 2.5 ng/mL) [16] | -7.93 | 14.4 | 98 | 102 | 105
NK-YS (IL-2 2.5 ng/mL) [20] | -4.31 | 2.83 | 91.2 | 94.4 | 104
NKL (IL-2 2.5 ng/mL) [24] | -16.1 | 0.22 | 95.8 | 101 | 97.5
SNK-6 (IL-2 2.5 ng/mL) [19] | -7.26 | -5.12 | 93 | 96.6 | 99.4
YT (IL-2 2.5 ng/mL) [23] | -6.41 | 1.19 | 83.4 | 102 | 105
[14] | -4.37 | 0.95 | 51.7 | 58.8 | 99.9
[21] | -1.44 | 14.8 | 4.57 | 2.84 | 73.8
[22] | -0.98 | 18.9 | 12.2 | 42.5 | 84.4
[25] | -3.05 | 6.63 | 20.6 | 31.7 | 84.1
[26] | -7.25 | 5.21 | 15.2 | 31.4 | 85.2
